Measured values: US20120258960A1, “NOVEL MULTIFUNCTIONAL PEPTIDASE INHIBITORS, ESPECIALLY FOR MEDICAL USE” (IMTM GMBH, priority 2009, published 2012)

Legend:
[1] = target: human recombinant Aminopeptidase N (Homo sapiens, UniProt P15144); assay: Measurement of APN activity (fluorogenic substrate (Ala)2-R110); format: biochemical; conditions: human recombinant APN approx. 5 nM, substrate 0.5 μM, pH 7.5
Description: Inhibitory effects of test items on the enzymatic activity of human recombinant Aminopeptidase N (final concentration approx. 5 nM) were assessed by using the fluorogenic substrate bis-(L-alanyl)-Rhodamine-110 (bis-trifluoracetate, abbreviation (Ala)2-R110) at a final concentration of 0.5 μM. The assay was performed in 0.05 M TRIS/HCl buffer pH 7.5, supplemented with 0.05% Triton (v/v), 0.05% BSA (w/v), 2 mM MgCl2.
The assay was performed in white microtitre plates for fluorescence measurements.
As controls, (Ala)2-R110 hydrolyzing activity in the absence of any test item as well as the spontaneous substrate hydrolysis was determined.
The release of the fluorescent hydrolysis product Rhodamine 110 was measured at an excitation wavelength of 485 nm and an emission wavelength of 530 nm by using a microtitre fluorescence reader immediately after substrate addition as well as after 30, 60 and 120 min.

[2] = target: purified, recombinant human DPIV (Homo sapiens, UniProt P27487); assay: Measurement of DPIV activity (fluorogenic substrate (Ala-Pro)2-R110)
Sequence of purified, recombinant human DPIV (P27487 whole entry): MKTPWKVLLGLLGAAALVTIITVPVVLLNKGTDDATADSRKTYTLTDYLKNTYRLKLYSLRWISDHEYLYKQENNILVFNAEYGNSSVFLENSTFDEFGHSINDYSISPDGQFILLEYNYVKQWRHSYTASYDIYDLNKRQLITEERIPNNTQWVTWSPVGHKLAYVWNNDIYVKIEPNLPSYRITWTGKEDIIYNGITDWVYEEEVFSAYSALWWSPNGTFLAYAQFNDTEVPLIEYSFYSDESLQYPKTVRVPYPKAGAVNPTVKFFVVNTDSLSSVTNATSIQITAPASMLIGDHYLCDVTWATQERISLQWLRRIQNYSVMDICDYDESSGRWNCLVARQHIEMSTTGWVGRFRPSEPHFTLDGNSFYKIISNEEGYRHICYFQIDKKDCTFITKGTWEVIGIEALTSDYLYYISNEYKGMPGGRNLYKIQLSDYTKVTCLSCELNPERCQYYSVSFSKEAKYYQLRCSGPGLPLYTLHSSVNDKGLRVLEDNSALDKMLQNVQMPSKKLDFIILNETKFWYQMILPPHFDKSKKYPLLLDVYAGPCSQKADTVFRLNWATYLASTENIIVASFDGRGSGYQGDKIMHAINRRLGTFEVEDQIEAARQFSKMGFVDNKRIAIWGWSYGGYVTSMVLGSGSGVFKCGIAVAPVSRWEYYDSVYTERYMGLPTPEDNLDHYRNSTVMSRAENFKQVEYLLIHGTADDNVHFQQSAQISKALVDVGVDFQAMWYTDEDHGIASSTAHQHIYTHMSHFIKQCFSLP
Description: The enzymatic activity of DPIV was assessed by the hydrolysis of the fluorogenic substrate bis-(L-alanyl-prolyl)-Rhodamin-110 (bis-trifluoracetate, abbreviation (Ala-Pro)2-R110). The final substrate concentration was 0.5 μM.
The assay was performed in white microtitre plates for fluorescence measurements. The test items, substrate and enzyme were diluted in assay buffer. […] As controls, the DPIV activity in the absence of test items as well as the spontaneous hydrolysis of the substrate was determined.

Sequence of human recombinant Aminopeptidase N (P15144 whole entry): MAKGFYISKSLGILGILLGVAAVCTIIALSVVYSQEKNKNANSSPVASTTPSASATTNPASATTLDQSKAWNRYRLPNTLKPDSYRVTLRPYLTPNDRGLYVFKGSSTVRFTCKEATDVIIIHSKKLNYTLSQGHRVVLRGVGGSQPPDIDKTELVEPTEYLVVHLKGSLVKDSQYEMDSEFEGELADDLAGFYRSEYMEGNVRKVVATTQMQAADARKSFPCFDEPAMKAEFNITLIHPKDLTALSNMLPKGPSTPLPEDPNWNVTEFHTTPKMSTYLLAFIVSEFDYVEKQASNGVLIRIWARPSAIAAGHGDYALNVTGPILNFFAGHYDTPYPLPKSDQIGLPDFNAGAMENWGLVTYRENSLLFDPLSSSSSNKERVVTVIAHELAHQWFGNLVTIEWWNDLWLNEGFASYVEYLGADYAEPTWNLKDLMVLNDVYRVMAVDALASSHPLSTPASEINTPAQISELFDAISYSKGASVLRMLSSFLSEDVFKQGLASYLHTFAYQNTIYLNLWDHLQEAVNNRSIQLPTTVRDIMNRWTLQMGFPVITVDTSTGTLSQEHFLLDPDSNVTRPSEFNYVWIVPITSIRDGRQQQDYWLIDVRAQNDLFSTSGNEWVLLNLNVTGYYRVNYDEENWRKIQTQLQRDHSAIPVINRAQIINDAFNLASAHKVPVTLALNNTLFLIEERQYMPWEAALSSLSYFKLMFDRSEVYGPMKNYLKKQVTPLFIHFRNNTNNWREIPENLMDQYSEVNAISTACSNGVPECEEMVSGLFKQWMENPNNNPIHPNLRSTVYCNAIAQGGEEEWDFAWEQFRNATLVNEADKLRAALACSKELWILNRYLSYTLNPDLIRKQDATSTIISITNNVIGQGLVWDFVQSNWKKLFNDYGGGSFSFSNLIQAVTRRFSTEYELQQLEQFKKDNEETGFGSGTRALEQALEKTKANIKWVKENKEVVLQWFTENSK

IC50 [1] | IC50 [2] | Compound
0.7 µM | 0.072 µM | CN(CCCNC(=O)C(O)C(N)Cc1ccccc1)C(=O)CC(N)Cc1cc(F)ccc1F (stereo not shown) [drawing 37]
0.346 µM | 0.1 µM | CC(C)(CNC(=O)CC(N)Cc1cc(F)ccc1F)CNC(=O)C(O)C(N)Cc1ccc(-c2ccccc2)cc1 (stereo not shown) [drawing 75]
32 µM | 5.5 µM | CCCCCCCCCCCCCC(=O)NC(CC(=O)NCC(C)(C)CNC(=O)C(O)C(Cc1ccccc1)NC(=O)CCCCCCCCCCCCC)Cc1cc(F)ccc1F (stereo not shown) [drawing 58]
6.2 µM | 0.2 µM | NC(CC(=O)NC(CCCNC(=O)C(O)C(N)Cc1ccccc1)C(=O)O)Cc1cc(F)ccc1F (stereo not shown) [drawing 35]
0.06 µM | 0.1 µM | NC(CC(=O)NCCCCNC(=O)C(O)C(N)Cc1ccc(Br)cc1)Cc1cc(F)ccc1F (stereo not shown) [drawing 61]
5.6 µM | 0.16 µM | NC(CC(=O)NCCNC(=O)C(O)C(N)Cc1ccccc1)Cc1cc(F)ccc1F (stereo not shown) [drawing 15]
0.14 µM | 0.08 µM | NC(CC(=O)NCCCCNC(=O)C(O)C(N)Cc1ccccc1)Cc1cc(F)ccc1F (stereo not shown) [drawing 25]
0.41 µM | 1.2 µM | NC(CC(=O)NCCCCCCNC(=O)C(O)C(N)Cc1ccccc1)Cc1ccccc1 (stereo not shown) [drawing 28]
– | 0.08 µM | CCCC(=O)OC(C(=O)NCC(C)(C)CNC(=O)CC(N)Cc1cc(F)ccc1F)C(N)Cc1ccccc1 (stereo not shown) [drawing 54]
0.01 µM | 0.1 µM | CC(C)(CNC(=O)CC(N)Cc1cc(F)ccc1F)CNC(=O)C(O)C(N)Cc1ccc(-c2cncnc2)cc1 (stereo not shown) [drawing 77]
0.06 µM | 0.1 µM | CC(C)(CNC(=O)CC(N)Cc1cc(F)ccc1F)CNC(=O)C(O)C(N)Cc1ccccc1 (stereo not shown) [drawing 26]
0.0008 µM | 0.775 µM | NC(CNC(=O)c1cccc(NC(=O)C(O)C(N)Cc2ccc(-c3cccnc3)cc2)c1)Cc1cc(F)ccc1F (stereo not shown) [drawing 79]
16.7 µM | 13.8 µM | CC(C)(NC(=O)CC(N)Cc1ccccc1)C(C)(C)NC(=O)C(O)C(N)Cc1ccccc1 (stereo not shown) [drawing 20]
> 50 µM | > 50 µM | CCCC(=O)NC(CC(=O)NCC(C)(C)CNC(=O)C(O)C(Cc1ccccc1)NC(=O)CCC)Cc1cc(F)ccc1F (stereo not shown) [drawing 38]
0.15 µM | > 50 µM | CC(C)(CNC(=O)CC(CN)Cc1ccccc1)CNC(=O)C(O)C(N)Cc1ccccc1 (stereo not shown) [drawing 34]
0.33 µM | 30 µM | CC(C)(CNCC(N)Cc1cc(F)ccc1F)CNC(=O)C(O)C(N)Cc1ccccc1 (stereo not shown) [drawing 70]
0.35 µM | 0.5 µM | NC(CC(=O)Nc1cccc(NC(=O)C(O)C(N)Cc2ccccc2)c1)Cc1cc(F)ccc1F (stereo not shown) [drawing 64]
> 50 µM | > 50 µM | CCCCCCCCCCCCCCCC(=O)NC(CC(=O)NCC(C)(C)CNC(=O)C(O)C(Cc1ccccc1)NC(=O)CCCCCCCCCCCCCCC)Cc1cc(F)ccc1F (stereo not shown) [drawing 62]
10 µM | 0.07 µM | NC(CC(=O)N1CCCN(C(=O)C(O)C(N)Cc2ccccc2)CC1)Cc1cc(F)ccc1F (stereo not shown) [drawing 65]
> 50 µM | 0.12 µM | CCCCCCCC(=O)OC(C(=O)NCCCCNC(=O)CC(N)Cc1cc(F)ccc1F)C(N)Cc1ccccc1 (stereo not shown) [drawing 50]

IC50 [1] | IC50 [2] | Compound
0.2 µM | 0.3 µM | CCCCCCCC(=O)OC(C(=O)NCC(C)(C)CNC(=O)CC(N)Cc1cc(F)ccc1F)C(N)Cc1ccccc1 (stereo not shown) [drawing 41]
2 µM | 2.12 µM | CC(C)(CNC(=O)CC(N)C(=O)N1CCSC1)CNC(=O)C(O)C(N)Cc1ccccc1 (stereo not shown) [drawing 30]
> 50 µM | > 50 µM | CCCCCCCC(=O)NC(CC(=O)NCC(C)(C)CNC(=O)C(O)C(Cc1ccccc1)NC(=O)CCCCCCC)Cc1cc(F)ccc1F (stereo not shown) [drawing 33]
> 50 µM | 25 µM | CCCCCCCCCCCCCCCCOC(C(=O)NCC(C)(C)CNC(=O)CC(N)Cc1cc(F)ccc1F)C(N)Cc1ccccc1 (stereo not shown)
2.9 µM | 0.8 µM | NC(CC(=O)NCCNC(=O)C(O)C(N)Cc1ccccc1)Cc1ccccc1 (stereo not shown) [drawing 14]
11.5 µM | > 50 µM | CN(CCCNC(=O)OCc1ccccc1)C(=O)C(O)C(N)Cc1ccccc1 (stereo not shown) [drawing 72]
> 50 µM | 0.02 µM | CCCCCCCC(=O)OC(C(=O)N(C)CCCNC(=O)CC(N)Cc1cc(F)ccc1F)C(N)Cc1ccccc1 (stereo not shown) [drawing 44]
> 50 µM | 0.9 µM | NC(CC(=O)N1CCN(C(=O)CC(O)C(N)Cc2ccccc2)CC1)Cc1ccccc1 (stereo not shown) [drawing 16]
15 µM | 0.3 µM | CC(C)(CNC(=O)CC(N)Cc1cc(F)ccc1F)CNC(=O)C(OC(=O)CCCc1ccccc1)C(N)Cc1ccccc1 (stereo not shown) [drawing 49]
0.12 µM | 2.67 µM | NC(CC(=O)NCCCCCNC(=O)C(O)C(N)Cc1ccccc1)Cc1ccccc1 (stereo not shown) [drawing 27]
0.02 µM | 0.5 µM | NC(CC(=O)NCCCNC(=O)C(O)C(N)Cc1ccccc1)Cc1cc(F)ccc1F (stereo not shown) [drawing 31]
0.08 µM | 0.16 µM | NC(CC(=O)NCC1(CNC(=O)C(O)C(N)Cc2ccccc2)CCCC1)Cc1cc(F)ccc1F (stereo not shown) [drawing 68]
> 50 µM | 4.6 µM | CC(C)(CNC(=O)CC(N)Cc1cc(F)ccc1F)CNC(=O)C(O)C(N)Cc1ccc(O)cc1 (stereo not shown) [drawing 73]
22 µM | 0.28 µM | C[C@@H]1CN(C(=O)CC(O)C(N)Cc2ccccc2)C[C@H](C)N1C(=O)CC(N)Cc1ccccc1 (stereo partly shown) [drawing 19]
27 µM | 0.8 µM | NC(CC(=O)N1CCN(C(=O)C(O)C(N)Cc2ccccc2)CC1)Cc1ccccc1 (stereo not shown) [drawing 17]
> 50 µM | 14 µM | CCCCCCCCOC(C(=O)NCC(C)(C)CNC(=O)CC(N)Cc1cc(F)ccc1F)C(N)Cc1ccccc1 (stereo not shown)
0.0005 µM | 0.46 µM | NC(CNC(=O)c1cccc(NC(=O)C(O)C(N)Cc2ccc(-c3ccsc3)cc2)c1)Cc1cc(F)ccc1F (stereo not shown) [drawing 78]
> 50 µM | > 50 µM | CCCCCCCCCCCCCCCCNC(CC(=O)NCC(C)(C)CNC(=O)C(O)C(Cc1ccccc1)NCCCCCCCCCCCCCCCC)Cc1cc(F)ccc1F (stereo not shown) [drawing 66]
18 µM | 0.6 µM | CCCCCCCCCCCC(=O)OC(C(=O)NCC(C)(C)CNC(=O)CC(N)Cc1cc(F)ccc1F)C(N)Cc1ccccc1 (stereo not shown) [drawing 47]
0.03 µM | 0.06 µM | CCCCCCCCCCCCCCCC(=O)OC(C(=O)NCC(C)(C)CNC(=O)CC(N)Cc1cc(F)ccc1F)C(N)Cc1ccccc1 (stereo not shown) [drawing 43]

IC50 [1] | IC50 [2] | Compound
0.18 µM | 2.7 µM | NC(CC(=O)NCCCCNC(=O)C(O)C(N)Cc1ccccc1)Cc1ccccc1 (stereo not shown) [drawing 23]
0.87 µM | 0.45 µM | CC(C(=O)NCC(C)(C)CNC(=O)C(O)C(N)Cc1ccccc1)C(N)Cc1cc(F)ccc1F (stereo not shown) [drawing 60]
0.07 µM | 0.1 µM | NC(CC(=O)NCC1(CNC(=O)C(O)C(N)Cc2ccccc2)CCC1)Cc1cc(F)ccc1F (stereo not shown) [drawing 57]
0.191 µM | 1.67 µM | NC(CC(=O)NCC1(CNC(=O)C(O)C(N)Cc2ccccc2)CCC1)Cc1ccccc1 (stereo not shown) [drawing 29]
> 50 µM | 0.47 µM | NC(CC(=O)NCCCCNC(=O)C(O)C(N)Cc1ccc(C(=O)O)cc1)Cc1cc(F)ccc1F (stereo not shown) [drawing 45]
> 25 µM | 2.2 µM | CC(C)(CNC(=O)CC(N)Cc1ccccc1)CNC(=O)CC(O)C(N)Cc1ccccc1 (stereo not shown) [drawing 24]
1.4 µM | 3.7 µM | CC(C)(CNC(=O)C(O)C(N)Cc1ccccc1)CNC(=O)C(CC(=O)O)C(N)Cc1cc(F)ccc1F (stereo not shown) [drawing 56]
15.4 µM | 0.2 µM | CN(CCCNC(=O)CC(N)Cc1cc(F)ccc1F)C(=O)C(O)C(N)Cc1ccccc1 (stereo not shown) [drawing 40]
0.0008 µM | 0.096 µM | CC(C)(CNC(=O)CC(N)Cc1cc(F)ccc1F)CNC(=O)C(O)C(N)Cc1ccc(-c2cccnc2)cc1 (stereo not shown) [drawing 76]
1.9 µM | 0.03 µM | CCCCCC(=O)OC(C(=O)NCC(C)(C)CNC(=O)CC(N)Cc1cc(F)ccc1F)C(N)Cc1ccccc1 (stereo not shown) [drawing 55]
0.009 µM | 1.7 µM | NC(CNC(=O)c1cccc(NC(=O)C(O)C(N)Cc2ccccc2)c1)Cc1cc(F)ccc1F (stereo not shown) [drawing 71]
> 50 µM | 1 µM | NC(CC(=O)NCCNC(=O)CC(O)C(N)Cc1ccccc1)Cc1ccccc1 (stereo not shown) [drawing 18]
– | 8 µM | CCCCCCCCCCCCCCCC(=O)OC(C(=O)NCCCCNC(=O)CC(N)Cc1cc(F)ccc1F)C(N)Cc1ccccc1 (stereo not shown) [drawing 53]
8.5 µM | 0.178 µM | CN(CCCN(C)C(=O)C(O)C(N)Cc1ccccc1)C(=O)CC(N)Cc1cc(F)ccc1F (stereo not shown) [drawing 32]
0.85 µM | 0.19 µM | NC(CC(=O)NCC1(CNC(=O)C(O)C(N)Cc2ccccc2)CCCCC1)Cc1cc(F)ccc1F (stereo not shown) [drawing 67]
2.8 µM | 2.6 µM | CCC(CC)(CNC(=O)CC(N)Cc1ccccc1)CNC(=O)C(O)C(N)Cc1ccccc1 (stereo not shown) [drawing 22]
1.9 µM | 40 µM | CC(C)(CNC(=O)CC(N)Cc1cc(F)ccc1F)CNC(=O)C1OC(=O)NC1Cc1ccc(-c2ccccc2)cc1 (stereo not shown) [drawing 69]
0.3 µM | 0.1 µM | CCC(CC)(CNC(=O)CC(N)Cc1cc(F)ccc1F)CNC(=O)C(O)C(N)Cc1ccccc1 (stereo not shown) [drawing 59]
0.02 µM | – | NC(CC(=O)Nc1ccc(NC(=O)C(O)C(N)Cc2ccccc2)cc1)Cc1cc(F)ccc1F (stereo not shown) [drawing 39]
